Reference: patent US20090304692A1, “TRIAZINE COMPOUNDS AS PI3 KINASE AND MTOR INHIBITORS” (Wyeth, priority 2008, published 2009)
Several values for one entry are separate records, joined by “and”; a condition that tells them apart may be missing. Equal entries are not always repeated. Where two headings read alike, the source gives them in different places.

Columns and labels:
Human mTOR (FLAG-TOR) = Human mTOR (FLAG-TOR) (Homo sapiens, UniProt P42345); assay: mTOR kinase assay (DELFIA format, purified enzyme); format: biochemical
Chain of Human mTOR (FLAG-TOR) (P42345 1360-2549 limits assumed): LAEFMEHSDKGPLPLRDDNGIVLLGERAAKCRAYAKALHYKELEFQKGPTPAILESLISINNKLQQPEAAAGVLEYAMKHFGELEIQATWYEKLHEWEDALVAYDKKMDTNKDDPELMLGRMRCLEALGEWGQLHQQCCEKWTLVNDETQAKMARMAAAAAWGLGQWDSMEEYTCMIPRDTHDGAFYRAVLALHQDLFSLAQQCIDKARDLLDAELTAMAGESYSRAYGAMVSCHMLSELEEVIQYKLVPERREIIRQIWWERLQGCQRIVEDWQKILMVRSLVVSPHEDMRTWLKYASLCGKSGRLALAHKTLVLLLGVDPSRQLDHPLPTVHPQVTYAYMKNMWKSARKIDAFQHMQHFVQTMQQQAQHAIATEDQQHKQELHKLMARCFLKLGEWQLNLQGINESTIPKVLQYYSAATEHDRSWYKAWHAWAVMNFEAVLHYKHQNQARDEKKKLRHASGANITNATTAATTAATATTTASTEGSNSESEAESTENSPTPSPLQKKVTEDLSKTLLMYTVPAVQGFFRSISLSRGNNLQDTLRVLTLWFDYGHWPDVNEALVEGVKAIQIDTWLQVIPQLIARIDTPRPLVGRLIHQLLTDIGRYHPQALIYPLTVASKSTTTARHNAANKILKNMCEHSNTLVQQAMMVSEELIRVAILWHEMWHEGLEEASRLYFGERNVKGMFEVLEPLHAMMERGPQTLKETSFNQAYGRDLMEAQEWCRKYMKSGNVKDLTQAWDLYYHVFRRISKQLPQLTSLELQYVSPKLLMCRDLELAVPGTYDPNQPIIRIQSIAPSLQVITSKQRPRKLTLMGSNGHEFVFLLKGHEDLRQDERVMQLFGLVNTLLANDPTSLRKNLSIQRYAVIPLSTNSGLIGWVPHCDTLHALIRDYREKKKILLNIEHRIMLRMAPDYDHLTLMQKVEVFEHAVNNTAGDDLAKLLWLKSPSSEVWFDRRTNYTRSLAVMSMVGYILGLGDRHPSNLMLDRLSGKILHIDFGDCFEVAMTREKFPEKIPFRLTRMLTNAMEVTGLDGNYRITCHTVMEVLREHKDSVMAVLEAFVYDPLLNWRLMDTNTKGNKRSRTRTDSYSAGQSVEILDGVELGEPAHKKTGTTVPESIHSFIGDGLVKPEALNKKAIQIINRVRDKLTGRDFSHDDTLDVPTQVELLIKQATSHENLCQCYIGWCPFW

[1] = tested on: human breast MDA-MB-361 tumor cell line; assay: In vitro cell culture growth assay (MTS), MDA-MB-361; format: cell-based
[2] = tested on: human prostate PC3-mm2 tumor cell line; assay: In vitro cell culture growth assay (MTS), PC3-mm2; format: cell-based
PI3K-α = PI3K-α (Homo sapiens, UniProt P42336); assay: PI3K-alpha fluorescence polarization assay; conditions: read-out: IC50 PI3Kα
Chain of PI3K-α (P42336 whole entry, species assumed): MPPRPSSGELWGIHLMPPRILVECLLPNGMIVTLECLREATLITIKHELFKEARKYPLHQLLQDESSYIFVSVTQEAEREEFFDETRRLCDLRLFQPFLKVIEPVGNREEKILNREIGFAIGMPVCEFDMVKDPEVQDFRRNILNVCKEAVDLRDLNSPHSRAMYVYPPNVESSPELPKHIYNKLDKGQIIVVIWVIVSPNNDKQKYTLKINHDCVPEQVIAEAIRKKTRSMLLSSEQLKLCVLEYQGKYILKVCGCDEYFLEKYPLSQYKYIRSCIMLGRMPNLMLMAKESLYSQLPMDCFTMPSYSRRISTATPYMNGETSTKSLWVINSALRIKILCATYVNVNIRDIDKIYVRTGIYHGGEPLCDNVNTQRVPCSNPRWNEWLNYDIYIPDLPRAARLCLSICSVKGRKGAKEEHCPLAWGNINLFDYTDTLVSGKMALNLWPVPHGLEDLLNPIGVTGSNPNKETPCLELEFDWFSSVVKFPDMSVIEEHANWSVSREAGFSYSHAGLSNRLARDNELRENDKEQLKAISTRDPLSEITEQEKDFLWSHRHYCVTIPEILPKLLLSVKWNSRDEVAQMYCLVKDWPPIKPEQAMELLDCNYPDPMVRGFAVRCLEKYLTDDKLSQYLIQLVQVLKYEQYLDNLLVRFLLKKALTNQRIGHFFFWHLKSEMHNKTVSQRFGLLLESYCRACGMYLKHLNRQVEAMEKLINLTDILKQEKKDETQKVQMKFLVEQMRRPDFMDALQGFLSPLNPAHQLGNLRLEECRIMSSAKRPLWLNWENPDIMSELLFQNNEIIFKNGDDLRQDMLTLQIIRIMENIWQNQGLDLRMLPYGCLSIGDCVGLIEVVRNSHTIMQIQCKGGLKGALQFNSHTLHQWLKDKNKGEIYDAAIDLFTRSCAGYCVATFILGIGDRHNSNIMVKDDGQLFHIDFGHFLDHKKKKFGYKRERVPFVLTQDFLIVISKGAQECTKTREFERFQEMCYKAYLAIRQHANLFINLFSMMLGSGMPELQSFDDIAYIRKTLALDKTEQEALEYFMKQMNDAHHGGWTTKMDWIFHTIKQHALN
Chain of PI3K-α (P27986 whole entry partner, species assumed): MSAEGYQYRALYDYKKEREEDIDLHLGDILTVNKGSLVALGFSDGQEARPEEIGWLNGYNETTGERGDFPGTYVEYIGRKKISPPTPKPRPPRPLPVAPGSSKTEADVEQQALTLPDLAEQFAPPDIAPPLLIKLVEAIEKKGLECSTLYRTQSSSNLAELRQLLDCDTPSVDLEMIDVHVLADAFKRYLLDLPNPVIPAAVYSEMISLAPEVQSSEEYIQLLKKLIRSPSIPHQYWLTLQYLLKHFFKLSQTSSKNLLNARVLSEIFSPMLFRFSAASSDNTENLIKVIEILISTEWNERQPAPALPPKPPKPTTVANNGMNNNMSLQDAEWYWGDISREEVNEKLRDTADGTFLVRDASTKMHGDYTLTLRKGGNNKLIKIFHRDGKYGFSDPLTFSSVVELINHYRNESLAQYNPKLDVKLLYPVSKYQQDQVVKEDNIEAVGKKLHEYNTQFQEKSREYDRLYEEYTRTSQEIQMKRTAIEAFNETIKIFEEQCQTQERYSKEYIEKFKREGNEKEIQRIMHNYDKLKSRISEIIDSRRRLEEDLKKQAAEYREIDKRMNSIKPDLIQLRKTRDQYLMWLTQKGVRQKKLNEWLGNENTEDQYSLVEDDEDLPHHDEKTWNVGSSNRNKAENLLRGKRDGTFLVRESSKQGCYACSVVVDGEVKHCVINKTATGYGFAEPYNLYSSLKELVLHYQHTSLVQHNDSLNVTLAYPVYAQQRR

PI3K-γ = PI3K-γ (Homo sapiens, UniProt P48736); assay: PI3K-gamma fluorescence polarization assay; conditions: read-out: IC50 PI3Kγ
Chain of PI3K-γ (P48736 whole entry, species assumed): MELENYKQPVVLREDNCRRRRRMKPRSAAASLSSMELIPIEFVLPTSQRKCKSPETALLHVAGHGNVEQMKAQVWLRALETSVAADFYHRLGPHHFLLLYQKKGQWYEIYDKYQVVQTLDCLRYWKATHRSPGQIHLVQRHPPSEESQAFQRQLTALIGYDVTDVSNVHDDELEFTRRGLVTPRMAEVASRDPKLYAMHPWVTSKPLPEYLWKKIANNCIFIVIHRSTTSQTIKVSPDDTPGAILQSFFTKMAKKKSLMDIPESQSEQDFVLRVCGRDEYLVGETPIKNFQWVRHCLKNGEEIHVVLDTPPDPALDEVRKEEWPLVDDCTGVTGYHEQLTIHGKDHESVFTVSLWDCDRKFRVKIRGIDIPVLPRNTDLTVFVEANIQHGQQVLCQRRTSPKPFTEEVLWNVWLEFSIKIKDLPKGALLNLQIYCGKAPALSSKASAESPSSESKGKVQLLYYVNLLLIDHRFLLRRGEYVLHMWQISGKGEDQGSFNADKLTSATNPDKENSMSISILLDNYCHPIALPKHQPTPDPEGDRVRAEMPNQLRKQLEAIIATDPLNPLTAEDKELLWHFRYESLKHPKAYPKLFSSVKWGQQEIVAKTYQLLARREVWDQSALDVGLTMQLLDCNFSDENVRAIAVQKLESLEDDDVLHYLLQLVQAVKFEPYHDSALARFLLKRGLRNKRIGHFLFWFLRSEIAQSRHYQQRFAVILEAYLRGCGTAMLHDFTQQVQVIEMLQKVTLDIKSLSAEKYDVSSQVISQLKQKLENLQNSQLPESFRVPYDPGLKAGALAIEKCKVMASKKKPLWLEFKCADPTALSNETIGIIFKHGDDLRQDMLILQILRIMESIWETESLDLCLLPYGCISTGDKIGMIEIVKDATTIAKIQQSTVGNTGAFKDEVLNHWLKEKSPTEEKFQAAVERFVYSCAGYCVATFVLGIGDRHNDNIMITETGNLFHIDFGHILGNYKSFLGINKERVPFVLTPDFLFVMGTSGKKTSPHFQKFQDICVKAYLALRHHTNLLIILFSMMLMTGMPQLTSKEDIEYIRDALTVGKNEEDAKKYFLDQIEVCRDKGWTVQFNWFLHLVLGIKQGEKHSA

[3] = Homo sapiens, MDA-MB-361, 72 h, read-out: IC50 MDA-MB-361
[4] = Homo sapiens, PC3MM2, 72 h, read-out: IC50 PC3-mm2
[5] = Homo sapiens, MDA-MB-361, 72 h, MTS cell growth assay, three days after drug treatment, MDA-MB-361 cells, read-out: IC50 MDA-MB-361
[6] = Homo sapiens, MDA-MB-361, 72 h, MTS cell growth assay, three days after drug treatment, read-out: IC50 MDA-MB-361
[7] = Homo sapiens, PC3MM2, 72 h, MTS cell growth assay, three days after drug treatment, PC3-mm2 cells, read-out: IC50 PC3-mm2
[8] = Homo sapiens, PC3MM2, 72 h, MTS cell growth assay, three days after drug treatment, read-out: IC50 PC3-mm2
[9] = Homo sapiens, 72 h, MTS cell growth assay, three days after drug treatment, MDA-MB-361 cells, read-out: IC50 MDA-MB-361
[10] = MTS cell growth assay, three days after drug treatment, MDA-MB-361 cells, read-out: IC50 MDA-MB-361
[11] = MTS cell growth assay, three days after drug treatment, PC3-mm2 cells, read-out: IC50 PC3-mm2

Compound	IC50 (Human mTOR (FLAG-TOR); read-out: IC50 mTOR)	IC50 (PI3K-α) [µM]	IC50 [1, 6] [µM]	IC50 [2, 7] [µM]	IC50 [2, 8] [µM]	IC50 (PI3K-γ) [µM]	further results
O=C(Nc1ccc(Cl)cc1)Nc1ccc(-c2nc(N3CCOCC3)nc(N3CCOCC3)n2)cc1 [Example 8, 1-(4-chlorophenyl)-3-[4-(4,6-dimorpholin-4-yl-1,3,5-triazin-2-yl)phenyl]-urea]	0.008 µM and 0.068 µM	0.02	–	–	–	–	IC50 ([1]; MTS cell growth assay, three days after drug treatment, listed as 10, read-out: IC50 MDA-MB-361): 2.71 µM; IC50 ([2]; MTS cell growth assay, three days after drug treatment, listed as 10, read-out: IC50 PC3-mm2): 1.78 µM; IC50 (PI3K-α; listed as 10): 0.075 µM
CC(C)Oc1nc(-c2ccc(NC(=O)Nc3ccc(C(=O)NCCN(C)C)cc3)cc2)nc(N2CCOCC2)n1 [Example 187, N-[2-(dimethylamino)ethyl]-4-({[4-(4-isopropoxy-6-morpholin-4-yl-1,3,5-triazin-2-yl)phenyl]carbamoyl}amino)benzamide]	–	0.003	–	–	–	–	IC50 (Human mTOR (FLAG-TOR); IC50 mTOR): 0.0035 µM; IC50 [1, 3]: 0.011 µM; IC50 [2, 4]: 0.041 µM
CCN(CC)CCOC(=O)c1ccc(NC(=O)Nc2ccc(-c3nc(N4CCOCC4)nc(N4C5CCC4COC5)n3)cc2)cc1 [Example 40, 2-(diethylamino)ethyl 4-[({4-[4-morpholin-4-yl-6-(3-oxa-8-azabicyclo[3.2.1]oct-8-yl)-1,3,5-triazin-2-yl]phenyl}carbamoyl)amino]benzoate]	0.00066 µM	–	< 0.03	0.062	0.062	–	IC50 [1, 5]: < 0.03 µM
CC(C)Oc1nc(-c2ccc(NC(=O)Nc3ccc(C(=O)NC4CCN(C)CC4)cc3)cc2)nc(N2CCOCC2)n1 [Example 97, 4-({[4-(4-isopropoxy-6-morpholin-4-yl-1,3,5-triazin-2-yl)phenyl]carbamoyl}amino)-N-(1-methylpiperidin-4-yl)benzamide]	0.0011 µM and 0.0012 µM	–	–	–	–	–	IC50 [1, 3]: < 0.03 µM; IC50 [2, 4]: 0.052 µM
COc1nc(-c2ccc(NC(=O)Nc3ccc(C(=O)N(C)CCN(C)C)cc3)cc2)nc(N2CCOCC2)n1 [Example 243, N-[2-(dimethylamino)ethyl]-4-({[4-(4-methoxy-6-morpholin-4-yl-1,3,5-triazin-2-yl)phenyl]carbamoyl}amino)-N-methylbenzamide]	–	0.001	–	–	–	–	IC50 (Human mTOR (FLAG-TOR); IC50 mTOR): 0.0077 µM; IC50 [1, 3]: 0.015 µM; IC50 [2, 4]: 0.034 µM; IC50 (PI3K-α; listed as 720): 0.0004 µM
CCN(CC)C(=O)[n+]1ccc(NC(=O)Nc2ccc(-c3nc(N4CCOCC4)nc(N4C5CCC4COC5)n3)cc2)cc1 [Example 201, 1-(diethylcarbamoyl)-4-[({4-[4-morpholin-4-yl-6-(3-oxa-8-azabicyclo[3.2.1]oct-8-yl)-1,3,5-triazin-2-yl]phenyl}carbamoyl)amino]pyridinium]	0.0009 µM	–	0.029	0.044	0.044	–	–
4-yl-6-(3-oxa-8-azabicyclo[3.2.1]oct-8-yl)-1,3,5-triazin-2-yl]phenyl}urea [Example 518]	–	0.0009	–	–	–	0.0065	IC50 [1, 10]: 0.004 µM; IC50 [2, 11]: 0.024 µM
C[C@@H]1COCCN1c1nc(-c2ccc(NC(=O)Nc3ccc(C(=O)NCCN(C)C)cc3)cc2)nc(N2CCOC[C@@H]2C)n1 [Example 634, N-[2-(dimethylamino)ethyl]-4-{[(4-{4-[(3R)-3-methylmorpholin-4-yl]-6-[(3S)-3-methylmorpholin-4-yl]-1,3,5-triazin-2-yl}phenyl)carbamoyl]amino}benzamide]	–	0.006	–	0.016	–	0.121	IC50 [1, 9]: 0.005 µM
4-{[(4-{4,6-bis[(3S)-3-methylmorpholin-4-yl]-1,3,5-triazin-2-yl}phenyl)carbamoyl]amino}-N-(2-pyrrolidin-1-ylethyl)benzamide [Example 635]	–	0.022	–	–	–	0.378	IC50 [1, 10]: 0.026 µM; IC50 [2, 11]: 0.106 µM

The next lines start with results.

IC50 (Human mTOR (FLAG-TOR); read-out: IC50 mTOR)	IC50 (PI3K-α) [µM]	IC50 [1, 6] [µM]	IC50 [2, 7] [µM]	IC50 [2, 8] [µM]	IC50 (PI3K-γ) [µM]	Compound	further results
0.00925 µM	–	–	–	–	–	O=C(Nc1ccc(-c2nc(N3CCOCC3)nc(N3CCOCC3)n2)cc1)Nc1ccc(F)cc1F [Example 11, (2,4-difluorophenyl)-3-[4-(4,6-dimorpholin-4-yl-1,3,5-triazin-2-yl)phenyl]urea]	IC50 ([1]; Homo sapiens, MDA-MB-361, 72 h, read-out: IC50 MDA-MB-361, MTS cell growth assay, three days after drug treatment): 0.794 µM; IC50 ([2]; Homo sapiens, PC3MM2, 72 h, read-out: IC50 PC3-mm2, MTS cell growth assay, three days after drug treatment): 5.63 µM
–	0.043	–	< 0.031	–	0.089	O=C(Nc1ccncc1)Nc1ccc(-c2nc(-c3ccccc3)nc(N3CCOCC3)n2)cc1 [Example 346, 1-[4-(4-morpholin-4-yl-6-phenyl-1,3,5-triazin-2-yl)phenyl]-3-pyridin-4-ylurea]	IC50 [1, 9]: < 0.031 µM; IC50 (PI3K-α; listed as 537): 0.0435 µM
0.0017 µM	–	0.045	–	0.043	–	O=C(Nc1ccc(-c2nc(N3CCOCC3)nc(N3CCOCC3)n2)cc1)Nc1cccs1 [Example 4, 1-[4-(4,6-dimorpholin-4-yl-1,3,5-triazin-2-yl)phenyl]-3-thiophen-2-ylurea]	–
–	0.021	–	0.168	–	0.108	C[C@H]1COCCN1c1nc(-c2ccc(NC(=O)Nc3ccc(C(=O)N4CCCC4)cc3)cc2)nc(N2CCOC[C@@H]2C)n1 [Example 571, 1-(4-{4,6-bis[(3S)-3-methylmorpholin-4-yl]-1,3,5-triazin-2-yl}phenyl)-3-[4-(pyrrolidin-1-ylcarbonyl)phenyl]urea]	IC50 [1, 5]: 0.09 µM
0.024 µM	–	0.017	–	0.049	–	CN(C)CCN(C)C(=O)c1ccc(NC(=O)Nc2ccc(-c3nc(N4CCC4)nc(N4CCOCC4)n3)cc2)cc1 [Example 197, 4-({[4-(4-azetidin-1-yl-6-morpholin-4-yl-1,3,5-triazin-2-yl)phenyl]carbamoyl}amino)-N-[2-(dimethylamino)ethyl]-N-methylbenzamide]	–
–	0.006	0.025	–	1.57	0.073	C[C@H]1COCCN1c1nc(-c2ccc(NC(=O)Nc3ccc(CO)cc3)cc2)nc(N2CCOCC2)n1 [Example 91, 1-[4-(2-hydroxymethyl)phenyl]-3-(4-{4-[(3S)-3-methylmorpholin-4-yl]-6-morpholin-4-yl-1,3,5-triazin-2-yl}phenyl)urea]	–
–	0.003	–	0.025	–	0.0505	C[C@H]1COCCN1c1nc(-c2ccc(NC(=O)Nc3ccc(C(=O)NCCN4CCCC4)cc3)cc2)nc(N2CCOCC2)n1 [Example 622, 4-{[(4-{4-[(3S)-3-methylmorpholin-4-yl]-6-morpholin-4-yl-1,3,5-triazin-2-yl}phenyl)carbamoyl]amino}-N-(2-pyrrolidin-1-ylethyl)benzamide]	IC50 [1, 9]: 0.005 µM
–	0.002	0.187	–	0.229	0.2	CC(O)c1nc(-c2ccc(NC(=O)Nc3ccncc3)cc2)nc(N2CCOCC2)n1 (stereo not drawn) [Example 223, 1-{4-[4-(1-hydroxyethyl)-6-morpholin-4-yl-1,3,5-triazin-2-yl]phenyl}-3-pyridin-4-ylurea]	–
0.001 µM	–	< 0.03	–	0.049	–	CC(O)c1ccc(NC(=O)Nc2ccc(-c3nc(N4CCOCC4)nc(N4CCOCC4)n3)cc2)cc1 (stereo not drawn) [Example 52, 1-[4-(4,6-dimorpholin-4-yl-1,3,5-triazin-2-yl)phenyl]-3-[4-(1-hydroxyethyl)phenyl]urea]	–
0.001 µM	–	0.045	–	0.043	–	O=C(Nc1ccc(-c2nc(N3CCOCC3)nc(N3CCOCC3)n2)cc1)Nc1cccnc1 [Example 2, 1-[4-(4,6-dimorpholin-4-yl-1,3,5-triazin-2-yl)phenyl]-3-pyridin-3-ylurea]	–
–	0.0005	–	0.0125	–	0.0018	CCN1CCN(C(=O)Nc2ccc(NC(=O)Nc3ccc(-c4nc(N5CCOCC5)nc(N5CCOCC5)n4)cc3)cc2)CC1 [Example 503, N-[4-({[4-(4,6-dimorpholin-4-yl-1,3,5-triazin-2-yl)phenyl]carbamoyl}amino)phenyl]-4-ethylpiperazine-1-carboxamide]	IC50 [1, 9]: 0.0075 µM
